Experimental findings from ChEMBL document CHEMBL1201862, “PubChem BioAssay data set” (2004) are described below.

Molecules are shown by their SMILES.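 Exposure lasted 48 hours, with cells grown in 96-well plates and compounds tested at five concentrations. The concentration for 50% growth inhibition is given as GI50.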 The source made the active and inactive calls. No stated cut-off is given here; in the data, active = GI50 up to about 1.1 µM and inactive = higher. Bounds are passed on as bounds.

Among the test systems are CAKI-1; NCI-H522; SK-MEL-28; SNB-75; Malme-3M; MDA-MB-231; HT-29; OVCAR-4; SF-295; COLO 205; NCI-H23; HOP-92; RPMI-8226; SNB-19; BT-549; MDA-N; TK-10; HOP-62; UACC-62; UACC-257.
Test in all cases: NCI tumour cell line growth inhibition, 48 h

Consider `CCC(/C=C/c1ccccc1)=N\NC(=S)N/N=C(/C=C/c1ccccc1)CC`, for which the GI50 was > 100 µM (inactive) in the test with CAKI-1; 30.5 µM (inactive) with NCI-H522; > 100 µM (inactive) in the test on SK-MEL-28; > 100 µM (inactive) in the test with SNB-75; 90.8 µM (inactive) in the test with Malme-3M; > 100 µM (inactive) with MDA-MB-231. Besides, the GI50 in the test with HT-29 was 55.1 µM (inactive); in the test with OVCAR-4 it was 35.2 µM (inactive); with SF-295, 87.7 µM (inactive); in the test with COLO 205, 30.8 µM (inactive); in the test on NCI-H23, 84.3 µM (inactive); in the test with HOP-92, 83.9 µM (inactive). The GI50 with RPMI-8226 is 35.5 µM (inactive); in the test on SNB-19, 63 µM (inactive); with BT-549, > 100 µM (inactive); in the test with MDA-N it was 58.1 µM (inactive); in the test on TK-10 it was > 100 µM (inactive); with HOP-62, > 100 µM (inactive). Further, the results for the GI50 in the test on UACC-62 and in the test on UACC-257 were 54.8 µM (inactive) and 39.6 µM (inactive), respectively.
As for `O=C1C2CCN(CC2)C1CN1CCOCC1` (stereo not given), the GI50 with CAKI-1 was 2.16 µM (inactive); with NCI-H522, 0.689 µM (active); with SK-MEL-28 it was 3.79 µM (inactive); in the test with SNB-75, 17 µM (inactive); with Malme-3M, 1.8 µM (inactive); with MDA-MB-231, 24.7 µM (inactive). Also, the GI50 in the test on HT-29 was 7.73 µM (inactive); with OVCAR-4, 4.04 µM (inactive); in the test with SF-295, 19.4 µM (inactive); in the test on COLO 205, 1.79 µM (inactive); in the test on NCI-H23, 9.95 µM (inactive); in the test on HOP-92, 1.9 µM (inactive). The GI50 in the test with RPMI-8226 is 2.13 µM (inactive); in the test with SNB-19 it was 18.7 µM (inactive); with BT-549, 2.28 µM (inactive); with MDA-N, 5.75 µM (inactive); in the test with TK-10 it was 6.82 µM (inactive); in the test on HOP-62, 18.5 µM (inactive). Also, the GI50 is 16.1 µM (inactive) with UACC-62 and 4.33 µM (inactive) in the test on UACC-257.
In the case of `O=C1C(Cl)=C(N2CCOCC2)C(=O)c2c(O)ccc(O)c21`, the GI50 is 0.433 µM (active) with CAKI-1; 0.286 µM (active) in the test with NCI-H522; 0.288 µM (active) in the test on SK-MEL-28; 0.667 µM (active) in the test with SNB-75; 0.223 µM (active) in the test on Malme-3M; 0.216 µM (active) in the test with MDA-MB-231. The GI50 in the test with HT-29 is 0.233 µM (active); in the test on OVCAR-4 it was 0.256 µM (active); in the test with SF-295 it was 1.64 µM (inactive); in the test with COLO 205, 0.19 µM (active); with NCI-H23, 0.255 µM (active); in the test on HOP-92, 0.291 µM (active). The GI50 in the test on RPMI-8226 was 1.84 µM (inactive); in the test on SNB-19 it was 1.78 µM (inactive); in the test on BT-549, 0.173 µM (active); with MDA-N it was 0.176 µM (active); in the test on TK-10, 0.638 µM (active); in the test with HOP-62, 0.853 µM (active). The GI50 with UACC-62 was 0.729 µM (active); in the test on UACC-257 it was 0.33 µM (active).
As to `O=C1NC(N2CCOCC2)=N/C1=C\c1ccccc1`, the GI50 in the test with CAKI-1, with NCI-H522, with SK-MEL-28, in the test with SNB-75, in the test on Malme-3M and in the test on MDA-MB-231 was > 100 µM (inactive) in each case. Besides, the GI50 with HT-29, in the test on OVCAR-4, with SF-295, with COLO 205, in the test on NCI-H23 and in the test on HOP-92 was > 100 µM (inactive) each time. Moreover, the GI50 in the test with RPMI-8226, in the test with SNB-19, in the test on BT-549, with MDA-N, with TK-10 and with HOP-62 was > 100 µM (inactive) in each case. Moreover, the GI50 in the test on UACC-62 and in the test with UACC-257 was > 100 µM (inactive) throughout.
With `CC(ON(C(c1ccccc1)C(C)C)C(C)(C)C)c1ccccc1` (stereo not given), the GI50 is 21.7 µM (inactive) in the test with CAKI-1; 26.5 µM (inactive) in the test with NCI-H522; 20.4 µM (inactive) in the test with SK-MEL-28; 25.1 µM (inactive) in the test on SNB-75; 38.3 µM (inactive) with Malme-3M; 21.1 µM (inactive) with MDA-MB-231. The GI50 is 18.9 µM (inactive) in the test with HT-29; 27 µM (inactive) in the test with OVCAR-4; 14.9 µM (inactive) with SF-295; 17.3 µM (inactive) with COLO 205; 18.7 µM (inactive) with NCI-H23; 20.6 µM (inactive) with HOP-92. In addition, the GI50 was 29.5 µM (inactive) in the test with RPMI-8226; 18.5 µM (inactive) in the test with SNB-19; 12.6 µM (inactive) in the test with BT-549; 25.8 µM (inactive) in the test on MDA-N; 22.4 µM (inactive) with TK-10; 19.4 µM (inactive) in the test with HOP-62. Moreover, the GI50 was 15.9 µM (inactive) in the test with UACC-62 and 17.2 µM (inactive) in the test with UACC-257.
As for `O=C(O)CCSC1=NCCN1`, the GI50 with CAKI-1, with NCI-H522, with SK-MEL-28, in the test on SNB-75, with Malme-3M and in the test on MDA-MB-231 was > 100 µM (inactive) in each case. The GI50 in the test with HT-29, in the test with OVCAR-4, in the test on SF-295, in the test with COLO 205, with NCI-H23 and in the test with HOP-92 was > 100 µM (inactive) in each case. Moreover, the GI50 with RPMI-8226, with SNB-19, in the test on BT-549, in the test on MDA-N, with TK-10 and in the test on HOP-62 was > 100 µM (inactive) throughout. The GI50 in the test with UACC-62 is > 100 µM (inactive); with UACC-257, 64 µM (inactive).
In the case of `CC(C)OP(=O)(OC(C)C)C(Nc1cccc(C(F)(F)F)c1)c1ccccc1` (stereo not given), the GI50 in the test on CAKI-1 is 18.7 µM (inactive); in the test on NCI-H522, 20.2 µM (inactive); with SK-MEL-28, 93.5 µM (inactive); with SNB-75, > 100 µM (inactive); in the test on Malme-3M, 32.3 µM (inactive); in the test on MDA-MB-231, 45.9 µM (inactive). In addition, the GI50 with HT-29 is 21.6 µM (inactive); in the test with OVCAR-4 it was 54.8 µM (inactive); with SF-295 it was 47.9 µM (inactive); in the test on COLO 205, 25.5 µM (inactive); in the test on NCI-H23 it was 55.6 µM (inactive); with HOP-92, 17.1 µM (inactive). Besides, the GI50 in the test on RPMI-8226 is 12.7 µM (inactive); with SNB-19, 71.6 µM (inactive); in the test with BT-549, 17.7 µM (inactive); in the test on MDA-N, 41 µM (inactive); in the test on TK-10 it was > 100 µM (inactive); in the test on HOP-62, 69.7 µM (inactive). Further, the GI50 in the test with UACC-62 was 69.8 µM (inactive); with UACC-257 it was 39.1 µM (inactive).
As for `CC(C)Cn1cnc2c(Sc3c([N+](=O)[O-])ncn3C)nc(N)nc21`, the GI50 in the test with CAKI-1 is 22.8 µM (inactive); in the test with NCI-H522 it was 26.3 µM (inactive); in the test on SK-MEL-28, > 60.7 µM (inactive); with SNB-75, > 59.8 µM (inactive); in the test with Malme-3M it was 30.8 µM (inactive); with MDA-MB-231, 64.4 µM (inactive). In addition, the GI50 was > 100 µM (inactive) in the test with HT-29; 23.6 µM (inactive) with OVCAR-4; > 100 µM (inactive) with SF-295; > 25.6 µM (inactive) in the test with COLO 205; > 65.5 µM (inactive) in the test on NCI-H23; 14.9 µM (inactive) in the test on HOP-92. The GI50 in the test on RPMI-8226 was > 52.7 µM (inactive); in the test on SNB-19 it was > 100 µM (inactive); with BT-549, 42.5 µM (inactive); with MDA-N, 36.1 µM (inactive); in the test on TK-10, > 41.1 µM (inactive); with HOP-62, > 80.4 µM (inactive). For the same compound, the figures for the GI50 in the test with UACC-62 and with UACC-257 were > 50.2 µM (inactive) and > 49.3 µM (inactive), respectively.
